Laboratory results reported in US20160120889A1, “LIFESPAN EXTENDING AGENT” (priority 2011, published 2016).

Columns and labels:
[1] = tested on: wild-type N2 strain of the nematode Caenorhabditis elegans; test: Nematode survival rate and average lifespan, wild-type N2; type: in vivo
Description: The wild-type N2 strain of the nematode Caenorhabditis elegans was used.
(§1) Complete S liquid medium (Sulston, J. E. and Brenner, S. (1974) Genetics 77, 95-104) was used for the culturing of the nematode. D-psicose or D-allose was added to the medium in 0.25% (14 mM) and 0.5% (28 mM). The Escherichia coli (E. coli) OP50 strain was added in 30 mg (wet weight/mL) to feed the worms. To exclude the effects of the germ cells on lifespan, the cell division inhibitor 2′-deoxy-5-fluorouridine (40 μM) was added.
(§2) Young worms, 4 days of age, were used for the measurements of survival rate and average lifespan. The prepared liquid medium was dispensed onto ten plastic petri dishes having a diameter of 3.5 cm (2 mL each). Ten nematodes were transferred to each petri dish (a total of 100 individuals), and cultured at 20° C. The samples were inoculated into a new medium every day until day 3, and every 2 to 3 days thereafter. Observations were made at the time of the inoculation, and the number of survived individuals was recorded.
(§3) The wild-type N2 strain of the nematode Caenorhabditis elegans was cultured, and lifespan was measured in the same manner as in Example 1, except that the D-psicose was used in 0.5% (w/v). […] The average lifespan with 0.5% D-psicose was 27 days, longer than the 23-day lifespan of the D-psicose-free control.

[2] = tested on: oxygen sensitive mutant mev-1 of the nematode Caenorhabditis elegans; test: Nematode average lifespan, oxygen sensitive mutant mev-1; type: in vivo; settings: mev-1, 0.25%, Example 3; control 12 days
Description: as §1, §2
as §3, with “oxygen sensitive mutant mev-1” for “wild-type N2 strain”, “0.25%.” for “0.5% (w/v).”, “0.25%” for “0.5%”, “16” for “27”, “12-day” for “23-day”

[3] = tested on: catalase genes ctl-1, ctl-2 in N2; test: Catalase mRNA gene expression in N2; type: in vivo, Caenorhabditis elegans; settings: N2, 0.5% (w/v), day 6
Description: (§4) The wild-type N2 and the oxygen sensitive mutant mev-1 of the nematode Caenorhabditis elegans were cultured in liquid medium (10 mL) containing 0.5% (w/v) D-psicose. The medium was dispensed onto plastic petri dishes having a diameter of 10 cm, and approximately 1,000 nematodes were placed in each petri dish. The nematodes were cultured in the same manner as in Example 1 except for these differences, and the samples were collected on day 6 from the start of the culturing. FIG. 5 represents the results of the comparison of SOD mRNA gene expression levels. For comparison, the RNA gene levels of mitochondria Mn-SOD and cytosol Cu/Zn-SOD were measured.
The wild-type N2 and the oxygen sensitive mutant mev-1 of the nematode Caenorhabditis elegans were cultured in the same manner as in Example 4. The samples were collected on day 6 from the start of the culturing, and the catalase mRNA gene expression levels were compared. For comparison, the RNA gene levels of cytosol ctl-1 and peroxisome CTL-2 were measured.

[4] = tested on: SOD activity in N2; test: SOD activity in lysate of N2; type: in vivo, Caenorhabditis elegans; settings: N2, 0.5% (w/v)
Description: as §4
(§5) The wild-type N2 and the oxygen sensitive mutant mev-1 of the nematode Caenorhabditis elegans were grown in the same manner as in Example 4. The samples were collected on day 7 from the start of the culturing, and the SOD activity in the lysate was measured.

[5] = tested on: SOD gene (mitochondria Mn-SOD, cytosol Cu/Zn-SOD) in N2; test: SOD mRNA gene expression in N2 (real time quantitative RT-PCR); type: in vivo, Caenorhabditis elegans; settings: N2, 0.5% (w/v), day 6, FIG. 5
Description: as §4

[6] = tested on: SOD activity in mev-1; test: SOD activity in lysate of mev-1; type: in vivo, Caenorhabditis elegans; settings: mev-1, 0.5% (w/v)
Description: as §4, §5

[7] = tested on: catalase activity in N2; test: Catalase activity in lysate of N2; type: in vivo, Caenorhabditis elegans; settings: N2, 0.5% (w/v), day 7, FIG. 8
Description: as §4
The wild-type N2 of the nematode Caenorhabditis elegans was grown in the same manner as in Example 4. The samples were collected on day 7 from the start of the culturing, and the catalase activity in the lysate was measured.

[8] = tested on: SOD gene (Mn-SOD sod-3, Cu/Zn-SOD) in mev-1; test: SOD mRNA gene expression in mev-1 (real time quantitative RT-PCR); type: in vivo, Caenorhabditis elegans
Description: as §4

SMILES | average lifespan ([1]; N2, 0.5% (28 mM) in medium, 20° C., Example 1, control 12.5 days) | increase in average lifespan vs control ([1]; N2, 0.5% in medium, Example 1) | average lifespan [2] | increase in gene expression levels of cytoplasm-localized catalase and peroxisome catalases (ctl-1, ctl-2) [3] | increase in SOD enzyme activity ([4]; day 7) | SOD activity in the lysate ([4]; day 7, FIG. 6) | SOD mRNA gene expression level [5] | average lifespan ([1]; N2, 0.25% (14 mM) in medium, 20° C., Example 1, control 15.8 days) | increase in average lifespan vs control ([1]; N2, 0.25% in medium, Example 1) | lifespan extension ([1]; N2, 0.5% (w/v)) | average lifespan ([1]; N2, 0.5% (w/v), Example 2, control 23 days) | increase in SOD enzyme activity ([6]; day 7) | SOD activity in the lysate ([6]; day 7, FIG. 6) | catalase activity in the lysate [7] | SOD mRNA gene expression level ([8]; mev-1, 0.5% (w/v), day 6, FIG. 5) | increase in expression level of Mn-SOD (sod-3) gene ([8]; mev-1, real time quantitative RT-PCR, 0.5% (w/v), day 6)
O=C[C@H](O)[C@H](O)[C@H](O)[C@H](O)CO [D-allose] | 15.8 days | 26% |  |  |  |  |  |  |  |  |  |  |  |  |  | 
O=C(CO)[C@H](O)[C@H](O)[C@H](O)CO [D-psicose] |  |  | 16 days | 1.5 fold | 1.5 fold | increased SOD activity | increased expression | 18.9 days | 20% | 17% | 27 days | 1.3 fold | increased SOD activity | increased catalase activity | increased expression | 1.7 fold
